These are literature values, as cited in patent US20110301131A1, “Drug Delivery Implants and Processes for Their Preparation” (priority 2008, published 2011).

For the series the following is noted: bupivacaine used in regional anaesthesia.

The structures appear in SMILES notation.

Turning to `CCCCN1CCCCC1C(=O)Nc1c(C)cccc1C` (stereo not shown) [bupivacaine], the Half-life result was “about 3 hours”.
